Measurements from patent US11191820B2, “Method for inducing early T memory response with short peptides anti-tumor vaccine” (OSE IMMUNOTHERAPEUTICS, priority 2015, dated 2021).

Key:
Format in all cases: in vivo, human
central memory T cells [1] = test: Central memory T cell cultured ELISPOT, phase 2 trial in advanced NSCLC
Experimental: CTL Immune responses measured though cultured Elispot. The immunogenicity was measured in Phase 2 clinical trial on cryopreserved PBMC from each test sample were thawed in 5% human culture medium (RPMI-1640 medium with 25 mM HEPES, supplemented with 5% human AB serum, 4 mM L-glutamine, 0.5 mM sodium pyruvate, 0.1 mM MEM non-essential amino acids, 100 μg/ml streptomycin, and 100 U/ml penicillin) containing 30 μg/ml DNAase. After centrifugation for 5 minutes at 1200 rpm, the cell pellets were resuspended in 5% human culture medium and washed 2 times. For the central Memory T cell cultured ELISPOT assay, 2×10^6/ml PBMC were placed in replicate wells in a 48-well plates and stimulated for 10 days with 10 μg/ml of each peptide. As a positive control, PBMC were also stimulated with a pool of recall viral peptides. Human rIL2 (10 U/ml) was added to the peptide-stimulated cultures at day 1, day 4 and day 7. After 10 days the stimulated cells were harvested and plated at a concentration of 5×10^4/well. Assay wells also received irradiated autologous PBMC (1×10^5/well) and 10 μg/ml peptide, either the vaccine peptide, irrelevant peptide or positive control peptides. Cells stimulated in vitro with each analog epitope were also tested against the corresponding wild-type epitope.
Data analysis and acceptance criteria. Mean and standard deviation (SD) of spots in replicate wells were calculated in all assays by transferring raw ELISPOT data from each experiment to an Excel-based computer program. Positive vaccine-induced T-cell responses were determined according to the criteria described below.
Acceptance Criteria for peptide-Induced specific T-cell response through central memory T cells: The positive criteria for CTL responses used in the phase 2 trial was identical to the criteria in the phase 1/2 trials which was established prospectively after analyzing the variability of pre-treatment responses in patients against each vaccine epitope and the irrelevant HBV control epitope. A positive peptide-induced CTL/T memory response to a given epitope met all of the following conditions: 1) was greater than 5 SFC above the irrelevant epitope response, 2) was greater than the mean SFC of the irrelevant epitope response, plus 2 SD, and 3) was two-fold greater than the SFC response in the pre-vaccination sample from the same patient, plus 2 SD. The inclusion of “plus two standard deviations” was used to accommodate the assay variability and served to increase the criteria stringency.

central memory T cells [2] = test: Cultured IFN-γ ELISPOT after 10-day in vitro stimulation of PBMC, phase 1/2 NSCLC trial of OSE-2101; parameters: key to net SFC of vaccine positive CTL responses: —, indicates SFC response did not meet criteria and vaccine response was negative; details: for No. Positive Responses: 6 NSCLC patients
Experimental: (§1) Clinical study design. Both trials were designed as phase 1/2, open label, multi-center, single dose, multiple administration studies to evaluate the safety and immunogenicity of the OSE-2101 immunotherapy. Patients were treated with 1 ml OSE-2101 every 3 weeks for a total of six doses. Each dose was administered subcutaneously in the same vicinity in the deltoid or upper thigh region, or at a contralateral site if local side-effects were observed. The study duration for each completed patient was 18 weeks. Clinical responses or patient survival were not measured in either phase 1/2 studies.
(§2) Clinical sample processing. Blood or leukapheresis product was obtained from patients at the pre-treatment, the Week 9 and Week 18 time points, 3 weeks after the third and sixth dose of OSE-2101 respectively. Peripheral blood mononuclear cells (PBMC) were isolated from samples within 24 hours of collection using a FICOLL-PAQUE density gradient and cryopreserved in containers designed to ensure optimal freezing (Mr. Frosty, Nalgene). For use, cells were rapidly thawed at 37° C. then transferred to human AB serum-containing medium for work-up.
(§3) Measurement of central T memory cells responses and T effector memory cells. The CTL responses in 16 total patients (10 colon and six NSCLC) were monitored for CTL responses against each epitope and against the wild-type epitope of epitopes analogs. For each patient, the pre-treatment, Week 9 and Week 18 time points were batch-tested in the same experiment to allow pre- versus post-treatment response comparison in the same experiment. Central T memory cells responses were measured using an IFN-γ enzyme-linked immunospot (cultured ELISPOT) assay following in vitro stimulation of PBMC for 10 days with each vaccine epitope. Briefly, PBMC from each time point were stimulated on day 0 with 10 μg/ml of each epitope individually in replicate in 48-well culture plates (2×10^6 PBMC/well). All cultures were fed with rIL-2 (Endogen, Woburn, Mass.; 10 U/ml final concentration) on days 1, 4 and 7. Ten days after initiation of culture, cells were harvested and tested for activity against specific vaccine peptides and corresponding wild-type peptides of vaccine analogs in the T memory ELISPOT assay. Cells were tested in Millipore IP 96-well plates pre-coated with mouse anti-human IFN-γ antibody (Mabtech USA, Cincinnati, Ohio). Five×10^4 cells and 1.25×10^4 cells from each culture were plated in triplicate wells together with 10^5 irradiated autologous PBMC and 10 μg/ml peptide. As a control, CTL were also tested against an irrelevant HLA-A2.1-binding HBV peptide. After 20 hours incubation, T memory ELISPOT plates were developed by performing sequential incubations with biotinylated anti-human IFN-γ antibody (Mabtech USA), Avidin-Peroxidase Complex (APC, Vector Laboratories, Burlingame, Calif.), and 3-amino-9-ethyl carbazole (AEC) substrate (Sigma Aldrich, St. Louis, Mo.). Spot-forming cells (SFC) were enumerated using a computer-assisted image analysis system (Zeiss KS ELISPOT Reader, Carl Zeiss MicroImaging, Thornwood, N.J.). Data is reported as the net SFC per 5×10^4 cells after subtracting spots induced with the irrelevant HBV peptide.

central memory T cells [3] = test: Cultured IFN-γ ELISPOT after 10-day in vitro stimulation of PBMC, phase 1/2 colon cancer trial of OSE-2101; parameters: key to net SFC of vaccine positive CTL responses: —, indicates SFC response did not meet criteria and vaccine response was negative; details: for Mean SFC: 10 colon patients
Experimental: as §1, §2, §3

## KVAEIVHFL [MAGE3.112I5 A]
Central memory T cells [1]; phase 2, month 9
  % of patients with positive CTL/central memory T cell response: 0%
  patients with positive CTL/central memory T cell response / patients tested: 0/7
Central memory T cells [1]; phase 2, month 12
  % of patients with positive CTL/central memory T cell response: 0%
  patients with positive CTL/central memory T cell response / patients tested: 0/4
Central memory T cells [1]; phase 2, week 9
  % of patients with positive CTL/central memory T cell response: 30%
  patients with positive CTL/central memory T cell response / patients tested: 10/33
Central memory T cells [1]; phase 2, week 18
  % of patients with positive CTL/central memory T cell response: 25%
  patients with positive CTL/central memory T cell response / patients tested: 8/32
Central memory T cells [1]; phase 2, week 30
  % of patients with positive CTL/central memory T cell response: 43%
  patients with positive CTL/central memory T cell response / patients tested: 10/23
Central memory T cells [2]; Week 9
  No. Positive Responses: 0
Central memory T cells [2]; Week 18
  No. Positive Responses: 0
Central memory T cells [2]; NSCLC patient 201, Week 9
  net SFC of vaccine positive CTL responses: —
Central memory T cells [2]; NSCLC patient 201, Week 18
  net SFC of vaccine positive CTL responses: —
Central memory T cells [2]; NSCLC patient 502, Week 9
  net SFC of vaccine positive CTL responses: —
Central memory T cells [2]; NSCLC patient 502, Week 18
  net SFC of vaccine positive CTL responses: —
Central memory T cells [2]; NSCLC patient 504, Week 9
  net SFC of vaccine positive CTL responses: —
Central memory T cells [2]; NSCLC patient 504, Week 18
  net SFC of vaccine positive CTL responses: —
Central memory T cells [2]; NSCLC patient 505, Week 9
  net SFC of vaccine positive CTL responses: —
Central memory T cells [2]; NSCLC patient 505, Week 18
  net SFC of vaccine positive CTL responses: —
Central memory T cells [2]; NSCLC patient 532, Week 9
  net SFC of vaccine positive CTL responses: —
Central memory T cells [2]; NSCLC patient 532, Week 18
  net SFC of vaccine positive CTL responses: —
Central memory T cells [2]; NSCLC patient 651, Week 9
  net SFC of vaccine positive CTL responses: —
Central memory T cells [2]; NSCLC patient 651, Week 18
  net SFC of vaccine positive CTL responses: —
Central memory T cells [3]; Week 9
  Mean SFC: 49.2 SFC per 50,000 cells
Central memory T cells [3]; Week 18
  Mean SFC: 77.8 SFC per 50,000 cells
Central memory T cells [3]; colon patient 551, Week 9
  net SFC of vaccine positive CTL responses: —
Central memory T cells [3]; colon patient 551, Week 18
  net SFC of vaccine positive CTL responses: 8.7 SFC per 50,000 cells
Central memory T cells [3]; colon patient 601, Week 9
  net SFC of vaccine positive CTL responses: 27.0 SFC per 50,000 cells
Central memory T cells [3]; colon patient 601, Week 18
  net SFC of vaccine positive CTL responses: —
Central memory T cells [3]; colon patient 602, Week 9
  net SFC of vaccine positive CTL responses: —
Central memory T cells [3]; colon patient 602, Week 18
  net SFC of vaccine positive CTL responses: —
Central memory T cells [3]; colon patient 603, Week 9
  net SFC of vaccine positive CTL responses: —
Central memory T cells [3]; colon patient 603, Week 18
  net SFC of vaccine positive CTL responses: 16.0 SFC per 50,000 cells
Central memory T cells [3]; colon patient 604, Week 9
  net SFC of vaccine positive CTL responses: 60.3 SFC per 50,000 cells
Central memory T cells [3]; colon patient 604, Week 18
  net SFC of vaccine positive CTL responses: 268.0 SFC per 50,000 cells
Central memory T cells [3]; colon patient 605, Week 9
  net SFC of vaccine positive CTL responses: —
Central memory T cells [3]; colon patient 605, Week 18
  net SFC of vaccine positive CTL responses: —
Central memory T cells [3]; colon patient 606, Week 9
  net SFC of vaccine positive CTL responses: —
Central memory T cells [3]; colon patient 606, Week 18
  net SFC of vaccine positive CTL responses: 18.7 SFC per 50,000 cells
Central memory T cells [3]; colon patient 607, Week 9
  net SFC of vaccine positive CTL responses: 60.3 SFC per 50,000 cells
Central memory T cells [3]; colon patient 607, Week 18
  net SFC of vaccine positive CTL responses: —
Central memory T cells [3]; colon patient 608, Week 9
  net SFC of vaccine positive CTL responses: —
Central memory T cells [3]; colon patient 608, Week 18
  net SFC of vaccine positive CTL responses: —
Central memory T cells [3]; colon patient 609, Week 9
  net SFC of vaccine positive CTL responses: —
Central memory T cells [3]; colon patient 609, Week 18
  net SFC of vaccine positive CTL responses: —
